Assay results from article PMC12249957, “Molecular Hybrids of Thiazolidinone: Bridging Redox Modulation and Cancer Therapy” (International Journal of Molecular Sciences, 2025).

Key:
[1] = target: insulin-like growth factor-1 receptor (IGF-1R); set-up: method as in PMID 20178321; settings: read-out: IC50, IGF-1R inhibition; cited from earlier work
[2] = DPPH radical-scavenging assay (antioxidant activity); format: biochemical
Description: In this study, the antioxidant activity of the newly synthesized thiazolidinone derivative 5 was evaluated, and its IC50 value was compared with those of the parent compound, thiazolidinone 1; previously reported derivatives 6 and 7; and the reference antioxidant, ascorbic acid. To ensure a valid comparison, all compounds were assessed under identical conditions using the DPPH (2,2-diphenyl-1-picrylhydrazyl) radical-scavenging assay.
The antioxidant activity of thiazolidinone derivative 5 was evaluated under conditions similar to those reported in our previous work for thiazolidinone derivatives (1, 6, and 7) using the DPPH assay (2,2-diphenyl-1-picrylhydrazyl). The concentration needed to get rid of 50% of free radicals is called IC50 (half-maximal inhibitory concentration) (μg/mL). The value of the IC50 is determined by plotting antioxidant activity against the concentration employing the equation below:%Antioxidant activity = (Acontrol − Asample/Acontrol) × 100 where Acontrol is the absorbance of the DPPH solution without the sample, and Asample is the absorbance with the tested compound. These percentage inhibition values are then plotted against the logarithm of the compound concentrations to generate a dose–response curve. […]

[3] = MTS cell viability assay, HFF-1; format: cell-based, human; settings: human, HFF-1 cells (foreskin fibroblasts)
Description: (§1) The MTS assay was employed in the current study to evaluate the in vitro effects of thiazolidinone derivatives (TZDs-1, 5, 6, and 7) on the cellular viability of the HFF-1, HepG2, and A549 cell lines following incubation for 24 and 48 h. Using the MTS assay allows for the quantitative measurement of how TZDs affect cell viability after a certain period of treatment. The 24- and 48-hour incubation periods are useful for observing either immediate and delayed cytotoxicity or effects on cell growth, providing more comprehensive data on the potential therapeutic or toxic properties of thiazolidinone derivatives.
(§2) All solvents used in the preparation of thiazolidinone derivatives were obtained in pure form from Sigma-Aldrich (St. Louis, MO, USA) and Thermo Fisher Scientific (Waltham, MA, USA). All other chemicals used herein were of analytical grade and were used without further purification. To separate and confirm the purity of thiazolidinone derivatives, column chromatography on silica gel (0.063–0.2 mm) and thin layer chromatography (TLC) with aluminum silica gel F254 were used. Human foreskin fibroblasts (HFF-1) (ATCC: SCRC-1041), hepatoblastoma cell line (HepG2) (ATCC: HB-8065), and human lung cancer cell line (A549) (ATCC: CCL-185) were used in this study to evaluate the cytotoxicity of the tested compounds. Distilled water for experiment preparation was generated using a Milli-Q® IQ 7005 Purification System (Millipore SAS, Molsheim, France).
(§3) HFF-1, HepG2, and A549 were cultured in DMEM (Sigma-Aldrich, St. Louis, MO, USA) medium complemented with 10% fetal bovine serum (FBS) (Sigma, Suffolk, UK), streptomycin ([…]), and penicillin (100 units/mL) (Sigma, Suffolk, UK) in a cell culture incubator (5% CO2 at 37 °C).
(§4) Thiazolidinone derivatives (TZDs-1, 5, 6, and 7) were prepared via dissolution in 10% DMSO and 8 serial dilutions and assessed starting from 5000 to 39 µg/mL. A CellTiter 96® AQueous One Solution Cell Proliferation Assay (MTS kit, Promega, Madison, WI, USA) was used to evaluate the cell viability of TZDs on the cells. Briefly, all cells were seeded into 96-well plates with a seeding density of 1.5 × 10^4 cells per well. After 24 h, cells adhered, and then, TZD derivatives were added, and plates were incubated in a cell culture incubator with 5% CO2 at 37 °C for 24 and 48 h. Completed DMEM was used as the positive control, and 0.1% Triton X-100 was used as the negative control. After incubation time, cells were washed with sterile phosphate-buffered saline, pH 7.4 (PBS), and then, a mixture of complete DMEM medium and MTS reagent was added to each well (100 µL of DMEM medium + 20 µL of MTS reagent). Finally, the plates were incubated for 3 h in a cell culture incubator. The absorbance at 492 nm was recorded using a Cytation ™ 3 Cell Imaging Multi-Mode Reader (BIOTEK Instruments Inc., Winooski, VT, USA). The percentage of cellular viability was calculated using the following equation:Cell Viability (%) = (S − T)/(H − T) × 100 where S is the absorbance of the cells treated with the applied compounds, T is the absorbance of the positive control, and H is the absorbance of the negative control. The results are presented as the mean ± SD of at least three independent measurements.

[4] = MTS cell viability assay, HepG2; format: cell-based; settings: human, HepG2 cells; for viability: concentrations of ≥1250 µg/mL, time not stated
Description: as §1, §2, §3, §4

[5] = MTS cell viability assay, A549; format: cell-based; settings: human, A549 cells
Description: as §1, §2, §3, §4

[6] = test system: normal (HFF-1) and cancerous cells (HepG2 and A549); experiment: Summary of selectivity toward cancer cells (MTS viability, normal vs cancerous cells); format: cell-based, human
Description: as §1, §3, §4

[7] = set-up: method as in doi:10.1016/j.molstruc.2024.139348; settings: DPPH; unit inferred; cited from earlier work
HFF-1 cells = experiment: MTS cell viability assay, HFF-1; format: cell-based, human; settings: 48 h, 1250 µg/mL
Description: as §1, §2, §3, §4

SMILES	viability at 24 h, 1250 µg/mL ([3]; 24 h)	viability at 48 h, 1250 µg/mL [3]	viability at 24 h, 1250 µg/mL ([4]; 24 h)	viability at 48 h, 1250 µg/mL [4]	viability at 24 h, 1250 µg/mL ([5]; 24 h)	viability at 48 h, 1250 µg/mL [5]	Selectivity Toward Cancer Cells ([6]; 24 h, 1250 µg/mL)	Selectivity Toward Cancer Cells ([6]; 48 h, 1250 µg/mL)	IC50 of antioxidant activity (Figure 3) [7]	other results
O=C1NC(=O)C(=Cc2ccccc2)S1 [5-benzylidenethiazolidine-2,4-dione]	–	–	–	–	–	–	–	–	–	IC50 [1]: 57 nM
COc1ccc(CN2C(=O)CSC2=NN=Cc2cc(OC)c(OC)c(OC)c2)cc1 [TZD-5, 3-(4-methoxybenzyl)-2-((3,4,5-trimethoxybenzylidene)hydrazineylidene) thiazolidin-4-one]	–	–	–	–	–	–	–	–	–	IC50 of antioxidant activity (DPPH) [2]: 24.4 µg/mL; viability at 24 h, 2500 µg/mL ([3]; 24 h, 2500 µg/mL): 97%; viability at 48 h, 2500 µg/mL ([3]; 2500 µg/mL): 48%; viability at 24 h, 2500 µg/mL ([4]; 24 h, 2500 µg/mL): 63%; viability at 48 h, 2500 µg/mL ([4]; 2500 µg/mL): 57%; viability at 24 h, 2500 µg/mL ([5]; 24 h, 2500 µg/mL): 95.8%; viability at 48 h, 2500 µg/mL ([5]; 2500 µg/mL): 55%; Selectivity Toward Cancer Cells ([6]; 24 h, 2500 µg/mL): Moderate (better selectivity); Selectivity Toward Cancer Cells ([6]; 48 h, 2500 µg/mL): Moderate
O=C1O[C@H]([C@@H](O)CO)C(O)=C1O [ascorbic acid, reference compound]	–	–	–	–	–	–	–	–	–	IC50 of antioxidant activity (DPPH) [2]: 11.76 µg/mL
COc1cc(/C=N/N=C2\SCC(=O)N2Cc2ccc([N+](=O)[O-])cc2)cc(OC)c1OC [TZD-7]	110%	> 94%	96.4%	~23%	70%	82.3%	Moderate (better selectivity)	High	200 µg/mL	viability at 24 h, 39 µg/mL ([3]; 24 h, 39 µg/mL): 135%
COc1cc(/C=N/N=C2\SCC(=O)N2Cc2ccccc2)cc(OC)c1OC [TZD-6]	2%	1 to 2%	25%	12%	13%	9%	Low (high toxicity to normal cells)	Low	111 µg/mL	viability at 24 h, 312 µg/mL ([3]; 24 h, 312 µg/mL): 70%; viability at 48 h, 2500 µg/mL ([3]; 2500 µg/mL): 1 to 2%; HFF-1 Viability (%) (HFF-1 cells): 1–2%; viability at 24 h, 156 µg/mL ([4]; 24 h, 156 µg/mL): 76%; viability at 24 h, 5000 µg/mL ([4]; 24 h, 5000 µg/mL): 35%; viability at 48 h, 2500 µg/mL ([4]; 2500 µg/mL): 7%; viability [4]: < 25%; viability at 24 h, 156 µg/mL ([5]; 24 h, 156 µg/mL): 78%; viability at 24 h, 5000 µg/mL ([5]; 24 h, 5000 µg/mL): 10%; viability at 48 h, 2500 µg/mL ([5]; 2500 µg/mL): 13%; viability ([5]; concentrations of ≥1250 µg/mL, time not stated): < 25%
COc1cc(C=NNC2=NC(=O)CS2)cc(OC)c1OC [TZD-1, 2-(2-(3,4,5-trimethoxybenzylidene) hydrazineyl)thiazol-4(5H)-one]	6.45%	15.3%	53.2%	21.9%	75.6%	70.6%	Low (high toxicity to normal cells)	Low	263 µg/mL	viability [4]: < 25%
O=C1NC(=O)C(=Cc2ccco2)S1 [5-(furan-2-ylmethylene)thiazolidine-2,4-dione]	–	–	–	–	–	–	–	–	–	IC50 [1]: 61 nM
